Activity calls are given as the source filed them. The calls are words filed in the database; no cut-off is given here.
Columns and labels:
[1] = system: SJSA-1; assay: Antiproliferative activity against human SJSA-1 cells assessed as cell growth inhibition measured after 72 hrs by CCK-8 assay; assay type: functional, cell-based; conditions: SJSA-1, 72 h
[2] = system: U2OS; assay: Antiproliferative activity against human U2OS cells assessed as cell growth inhibition measured after 72 hrs by CCK-8 assay; assay type: functional, cell-based
[3] = Toxicity in BALB/c nude mouse xenografted with human MNNG/HOS cells assessed as effect on spleen morphology by H and E staining assay at 62.5 mg/kg, ip administered twice per day for 18 days; assay type: organism-based, HOS-TE85; conditions: in vivo, 432 h, time 18 day
[4] = system: HOS-TE85; assay: Inhibition of cell migration in human MNNG/HOS cells at 20 nM measured after 24 hrs by wound healing assay relative to control; assay type: functional
[5] = Plasma clearance in male ICR mouse at 12.5 mg/kg, iv measured upto 24 hrs by LC-MS/MS analysis; assay type: ADME, organism-based
[6] = system: HOS-TE85; assay: Antitumor activity against human MNNG/HOS cells xenografted in BALB/c nude mouse assessed as reduction in tumor weight at 62.5 mg/kg, ip administered twice per day for 18 days; assay type: functional, organism-based; conditions: time 18.0 day
[7] = Toxicity in BALB/c nude mouse xenografted with human MNNG/HOS cells assessed as effect on kidney morphology by H and E staining assay at 62.5 mg/kg, ip administered twice per day for 18 days; assay type: organism-based, HOS-TE85; conditions: in vivo, 432 h, time 18 day
[8] = Half life in male ICR mouse at 5 mg/kg, iv measured upto 24 hrs by LC-MS/MS analysis; assay type: ADME, organism-based; conditions: in vivo
[9] = system: SW1353; assay: Antiproliferative activity against human SW1353 cells assessed as cell growth inhibition measured after 72 hrs by CCK-8 assay; assay type: functional, cell-based; conditions: SW1353, 72 h
[10] = system: HOS-TE85; assay: Antitumor activity against human MNNG/HOS cells xenografted in female BALB/c nude mouse assessed as tumor growth inhibition at 62.5 mg/kg, ip administered twice per day for 18 days relative to control; assay type: functional; conditions: HOS-TE85, 432 h, time 18 day, read-out: TGI
[11] = system: HOS-TE85; assay: Antiproliferative activity against human MNNG/HOS cells with low MYOF expression assessed as cell growth inhibition incubated for 72 hrs by CCK-8 assay; assay type: functional, cell-based; conditions: HOS-TE85, 72 h
[12] = system: HOS-TE85; assay: Cell cycle arrest at human MNNG/HOS cells assessed as accumulation at G0/G1 phase at 5 uM measured after 24 hrs by propidium iodide staining based flow cytometry(Rvb=37.12%); assay type: functional
[13] = system: HOS; assay: Antiproliferative activity against human HOS cells assessed as cell growth inhibition measured after 72 hrs by CCK-8 assay; assay type: functional, cell-based
[14] = system: SAOS-2; assay: Antiproliferative activity against human SAOS-2 cells assessed as growth inhibition measured after 72 hrs by CCK-8 assay; assay type: functional, cell-based; conditions: SAOS-2, 72 h
[15] = Cytotoxicity against human GES1 cells assessed as growth inhibition measured after 72 hrs by CCK-8 assay; assay type: toxicity, cell-based
[16] = system: 143B; assay: Antiproliferative activity against human 143B cells assessed as cell growth inhibition measured after 72 hrs by CCK-8 assay; assay type: functional, cell-based
[17] = Toxicity in ICR mouse at 300 mg/kg, ip administered daily for a week; assay type: organism-based; conditions: in vivo
[18] = Toxicity in BALB/c nude mouse xenografted with human MNNG/HOS cells assessed as effect on ratio of heart weight to body weight at 62.5 mg/kg, ip administered twice per day for 18 days; assay type: organism-based, HOS-TE85; conditions: in vivo, 432 h, time 18 day
[19] = Drug distribution in tumor of BALB/c nude mouse xenografted with human MNNG/HOS cells at 62.5 mg/kg,ip measured after 12 hrs; assay type: ADME, organism-based, Neoplasm, HOS-TE85; conditions: read-out: Ct
[20] = Toxicity in BALB/c nude mouse xenografted with human MNNG/HOS cells assessed as effect on heart morphology by H and E staining assay at 62.5 mg/kg, ip administered twice per day for 18 days; assay type: organism-based, HOS-TE85; conditions: in vivo, 432 h, time 18 day
[21] = system: HOS-TE85; assay: Cell cycle arrest at human MNNG/HOS cells assessed as accumulation at S phase at 5 uM measured after 24 hrs by propidium iodide staining based flow cytometry(Rvb=38.9%); assay type: functional
[22] = system: SJSA-1; assay: Antiproliferative activity against human SJSA-1 cells with increase MYOF expression assessed as cell growth inhibition incubated for 72 hrs by CCK-8 assay; assay type: functional, cell-based; conditions: SJSA-1, 72 h
[23] = system: HOS-TE85; assay: Antiproliferative activity against human MNNG/HOS cells assessed as cell growth inhibition measured after 72 hrs by CCK-8 assay; assay type: functional, cell-based; conditions: HOS-TE85, 72 h
[24] = Drug distribution in plasma of BALB/c nude mouse xenografted with human MNNG/HOS cells at 62.5 mg/kg,ip measured after 12 hrs; assay type: ADME, organism-based, HOS-TE85
[25] = Toxicity in BALB/c nude mouse xenografted with human MNNG/HOS cells assessed as effect on ratio of liver weight to body weight at 62.5 mg/kg, ip administered twice per day for 18 days; assay type: organism-based, HOS-TE85; conditions: in vivo, 432 h, time 18 day
[26] = Cmax in male ICR mouse at 62.5 mg/kg, ip measured upto 24 hrs by LC-MS/MS analysis; assay type: ADME, organism-based; parameters: dose 62.5 mg/kg, time < 24 hrs, route ip; conditions: in vivo
[27] = AUC(0 to infinity) in male ICR mouse at 62.5 mg/kg, ip measured upto 24 hrs by LC-MS/MS analysis; assay type: ADME, organism-based; parameters: dose 62.5 mg/kg, time < 24 hrs, route ip; conditions: in vivo
[28] = Toxicity in BALB/c nude mouse xenografted with human MNNG/HOS cells assessed as effect on ratio of spleen weight to body weight at 62.5 mg/kg, ip administered twice per day for 18 days; assay type: organism-based, HOS-TE85; conditions: in vivo, 432 h, time 18 day
[29] = Toxicity in ICR mouse at 800 mg/kg, ip; assay type: organism-based; conditions: in vivo
[30] = Half life in male ICR mouse at 62.5 mg/kg, ip measured upto 24 hrs by LC-MS/MS analysis; assay type: ADME, organism-based; conditions: in vivo
[31] = Toxicity in BALB/c nude mouse xenografted with human MNNG/HOS cells assessed as effect on ratio of kidney weight to body weight at 62.5 mg/kg, ip administered twice per day for 18 days; assay type: organism-based, HOS-TE85; conditions: in vivo, 432 h, time 18 day
[32] = system: MG-63; assay: Antiproliferative activity against human MG-63 cells assessed as cell growth inhibition measured after 72 hrs by CCK-8 assay; assay type: functional, cell-based; conditions: MG-63, 72 h
[33] = Toxicity in BALB/c nude mouse xenografted with human MNNG/HOS cells assessed as effect on liver morphology by H and E staining assay at 62.5 mg/kg, ip administered twice per day for 18 days; assay type: organism-based, HOS-TE85; conditions: in vivo, 432 h, time 18 day
[34] = Toxicity in BALB/c nude mouse xenografted with human MNNG/HOS cells assessed as body weight loss at 62.5 mg/kg, ip administered twice per day for 18 days; assay type: organism-based, HOS-TE85; conditions: in vivo, 432 h, time 18 day
[35] = Bioavailability in male ICR mouse at 62.5 mg/kg, ip measured upto 24 hrs by LC-MS/MS analysis; assay type: ADME, organism-based; conditions: in vivo
[36] = Oral bioavailability in male ICR mouse at 25 mg/kg measured upto 24 hrs by LC-MS/MS analysis; assay type: ADME, organism-based; conditions: in vivo
[37] = system: MG-63; assay: Antiproliferative activity against human MG-63 cells with increase MYOF expression assessed as cell growth inhibition incubated for 72 hrs by CCK-8 assay; assay type: functional, cell-based; conditions: MG-63, 72 h
[38] = system: HOS-TE85; assay: Cell cycle arrest in human MNNG/HOS cells assessed as accumulation at G2/M phase at 5 uM measured after 24 hrs by propidium iodide staining based flow cytometry(Rvb=21.2%); assay type: functional
[39] = system: K562; assay: Antiproliferative activity against human K562 cells with low MYOF expression assessed as cell growth inhibition incubated for 72 hrs by CCK-8 assay; assay type: functional, cell-based; conditions: K562, 72 h
[40] = Half life in male ICR mouse at 12.5 mg/kg, iv measured upto 24 hrs by LC-MS/MS analysis; assay type: ADME, organism-based; conditions: in vivo
[41] = system: HOS-TE85; assay: Inhibition of cell migration in human MNNG/HOS cells at 5 nM measured after 24 hrs by transwell assay; assay type: functional
[42] = system: HOS-TE85; assay: Antiproliferative activity against human MNNG/HOS cells with increase MYOF expression assessed as cell growth inhibition incubated for 72 hrs by CCK-8 assay; assay type: functional, cell-based; conditions: HOS-TE85, 72 h
[43] = Cytotoxicity against human BMSC cells assessed as growth inhibition measured after 72 hrs by CCK-8 assay; assay type: toxicity, cell-based, HBMSC
[44] = AUC(0 to infinity) in male ICR mouse at 12.5 mg/kg, iv measured upto 24 hrs by LC-MS/MS analysis; assay type: ADME, organism-based; parameters: time < 24 hrs, dose 12.5 mg/kg, route iv; conditions: in vivo
[45] = system: HL-60; assay: Antiproliferative activity against human HL-60 cells with low MYOF expression assessed as cell growth inhibition incubated for 72 hrs by CCK-8 assay; assay type: functional, cell-based; conditions: HL-60, 72 h

In the case of `Cc1ccnc(N2C(=O)CS[C@@H]2c2cccc(C(=O)NCCCCn3cccn3)c2)c1`, the IC50 [1] is reported as 62.2 nM, the IC50 [2] is reported as 26.5 nM and the Activity [3] is reported as “Non-Toxic”. The inhibition at 0.02 µM [4] was 50%, the clearance [5] was 66.9 mL/min/kg and the Activity [6] was “Active”. The Activity [7] was “Non-Toxic”, the half-life [8] was 23.4 min and the IC50 [9] was 19.9 nM. For the same molecule, the inhibition in vivo at 62.5 mg/kg [10] was 52.9%, the IC50 [11] was 35.2 nM and the Activity [12] was 59.69%. The IC50 [13] was 50.9 nM, the IC50 [14] was 26.8 nM and the IC50 at 72 h [15] was over 20 µM. The IC50 [16] was 29.5 nM, the Activity [17] was “Non-Toxic” and the Activity [18] was “Non-Toxic”. For the same molecule, the concentration at 12 h [19] was 110 nM, the Activity [20] was “Non-Toxic” and the Activity [21] was 30.1%. It also gave an IC50 [22] of 62.2 nM, an IC50 [23] of 21.9 nM and a concentration at 12 h [24] of 55.5 nM. For the same molecule, the Activity [25] was “Non-Toxic”, the Cmax [26] was 20500 ng/mL and the AUC(0-inf) [27] was 8410 ng·h/mL. The Activity [28] was “Non-Toxic”, the Activity [29] was “Non-Toxic” and the half-life [30] was 38.5 min. The Activity [31] was “Non-Toxic”, the IC50 [32] was 14.9 nM and the Activity [33] was “Non-Toxic”. The Activity [34] was “Non-Toxic”, the bioavailability [35] was 52.1% and the bioavailability [36] was 0.36%. For the same molecule, the IC50 [37] was 14.9 nM, the Activity [38] was 10.21% and the IC50 [39] was 28.1 nM. It also gave a half-life [40] of 3.66 min, an inhibition at 0.005 µM [41] of 60% and an IC50 [42] of 31.6 nM. The IC50 at 72 h [43] was over 10 µM, the AUC(0-inf) [44] was 3230 ng·h/mL and the IC50 [45] was 19 nM.
